Data reported in publication PMC9120017, “Inhibition mechanism of the chloride channel TMEM16A by the pore blocker 1PBC” (Nature Communications, 2022).
Where two headings read alike, the source gives them in different places.

Biological target: T1, mouse TMEM16A mutant T518A (Mus musculus, UniProt Q8BHY3, T518A)
T1 construct: expressed in transfected cells; host or cells: HEK293T
T1 sequence (Q8BHY3 1-960 T518A): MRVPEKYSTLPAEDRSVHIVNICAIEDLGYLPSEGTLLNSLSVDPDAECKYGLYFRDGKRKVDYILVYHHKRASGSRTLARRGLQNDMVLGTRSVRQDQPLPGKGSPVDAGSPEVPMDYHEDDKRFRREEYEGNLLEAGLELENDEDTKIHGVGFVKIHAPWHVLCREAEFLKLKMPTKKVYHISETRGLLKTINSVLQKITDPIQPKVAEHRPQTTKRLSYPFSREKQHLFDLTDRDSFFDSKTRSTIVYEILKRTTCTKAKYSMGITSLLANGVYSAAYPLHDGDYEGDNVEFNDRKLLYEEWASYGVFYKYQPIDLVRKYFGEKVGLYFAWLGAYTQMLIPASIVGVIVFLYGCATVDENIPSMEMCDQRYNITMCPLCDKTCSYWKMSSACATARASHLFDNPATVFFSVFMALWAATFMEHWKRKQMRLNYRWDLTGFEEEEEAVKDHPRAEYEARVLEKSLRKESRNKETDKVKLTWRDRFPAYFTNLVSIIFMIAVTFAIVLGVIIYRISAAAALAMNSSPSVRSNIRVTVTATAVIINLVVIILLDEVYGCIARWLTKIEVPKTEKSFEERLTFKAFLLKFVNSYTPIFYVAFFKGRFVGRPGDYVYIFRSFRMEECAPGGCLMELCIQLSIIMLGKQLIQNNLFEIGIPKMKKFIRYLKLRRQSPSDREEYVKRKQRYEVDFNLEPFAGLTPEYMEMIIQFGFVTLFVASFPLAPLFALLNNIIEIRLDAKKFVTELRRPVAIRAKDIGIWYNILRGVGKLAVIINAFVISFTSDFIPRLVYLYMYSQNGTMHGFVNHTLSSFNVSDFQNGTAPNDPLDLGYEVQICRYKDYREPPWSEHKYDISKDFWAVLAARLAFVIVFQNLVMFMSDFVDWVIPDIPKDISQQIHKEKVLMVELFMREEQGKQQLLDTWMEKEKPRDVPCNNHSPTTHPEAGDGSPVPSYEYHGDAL
Assay: Inside-out patch recording of 1PBC block, mutant T518A
Assay type: cell-based
Settings: for remaining activity at 1 µM: 1PBC 1; for remaining activity at 1 µM / remaining activity at 3 µM / remaining activity at 10 µM / remaining activity at 30 µM / remaining activity at 100 µM: read-out: fraction of unblocked current; for remaining activity at 3 µM: 1PBC 3; for remaining activity at 10 µM: 1PBC 10; for remaining activity at 30 µM: 1PBC 30; for remaining activity at 100 µM: 1PBC 100
Experimental: HEK293T cells (ATCC CRL-1573) were maintained in Dulbecco’s modified Eagle’s medium (DMEM; Sigma-Aldrich) supplemented with 10 U ml^−1 penicillin, 0.1 mg ml^−1 streptomycin (Sigma-Aldrich), 2 mM L-glutamine (Sigma-Aldrich), and 10% FBS (Sigma-Aldrich) in a humidified atmosphere containing 5% CO2 at 37 °C. HEK293S GnTI^− cells (ATCC CRL-3022) were maintained in HyClone HyCell TransFx-H medium (GE Healthcare) supplemented with 10 U ml^−1 penicillin, 0.1 mg ml^−1 streptomycin, 4 mM L-glutamine, 0.15% poloxamer 188 (Sigma-Aldrich), and 1% FBS in an atmosphere containing 5% CO2 at 185 rpm at 37 °C. The ac splice variant of mouse TMEM16A (UniProt ID: Q8BHY3), mouse TMEM16B (UniProt ID: Q8CFW1), or mouse TMEM16F (UniProt ID: Q6P9J9) bearing a 3C cleavage site, a Venus YFP, a Myc tag, and a Streptavidin-binding peptide (SBP) downstream of the open reading frame in a modified pcDNA3.1 vector (Invitrogen) were used as described previously[21],[31]. Mutations were introduced using a modified QuikChange method[58] and were verified by sequencing.
HEK293T cells were transfected with 3–4 μg DNA per 6 cm Petri dish using the calcium phosphate co-precipitation method and were used within 24–96 h after transfection. Recordings were performed on inside-out patches excised from HEK293T cells expressing the construct of interest. Patch pipettes were pulled from borosilicate glass capillaries (O.D. 1.5 mm, I.D. 0.86 mm, Sutter Instrument) and were fire-polished with a microforge (Narishige) before use. Pipette resistance was typically 3–8 MΩ when filled with the recording solutions detailed below. Seal resistance was typically 4 GΩ or higher. Voltage-clamp recordings were made using Axopatch 200B, Digidata 1550, and Clampex 10.7 (Molecular Devices). Analog signals were filtered with the in-built 4-pole Bessel filter at 10 kHz and were digitized at 20 kHz. Solution exchange was achieved using a gravity-fed system through a theta glass pipette mounted on an ultra-fast piezo-driven stepper (Siskiyou). […] All recordings were performed at 20 °C.
A symmetrical ionic condition was used throughout. Stock solution with Ca^2+-EGTA contained 150 mM NaCl, 5.99 mM Ca(OH)2, 5 mM EGTA, and 10 mM HEPES at pH 7.40. Stock solution with EGTA contained 150 mM NaCl, 5 mM EGTA, and 10 mM HEPES at pH 7.40. Free Ca^2+ concentrations were adjusted by mixing the stock solutions at the required ratios calculated using the WEBMAXC program (http://web.stanford.edu/~cpatton/webmaxcS.htm). Patch pipettes were filled with the stock solution with Ca^2+-EGTA, which has a free Ca^2+ concentration of 1 mM. 1PBC (ChemBridge) stock was reconstituted in anhydrous DMSO (Sigma-Aldrich) at 100 mM and stored at −20 °C. Working solutions with 1PBC were prepared by serial dilution. Unless otherwise stated, experiments were performed at a saturating Ca^2+ concentration as shown in Supplementary Table 1 and the primary data were corrected for current rundown as described previously[21],[25].
Concentration-response relations, obtained from the ratio of the I-V plots before and after the application of the blocker, were fitted to the Hill equation,1 I/Imax=1/1+IC50/[blocker]^h where I/Imax is the normalized current responses, IC50 defines the concentration at which inhibition is at its half-maximum, and h is the Hill coefficient.

IC50 (0 mV, 2 µM Ca2+): 5.67 µM | remaining activity at 1 µM (0 mV): 82.6% | remaining activity at 1 µM (20 mV): 78.8% | remaining activity at 1 µM (40 mV): 75.1% | remaining activity at 1 µM (60 mV): 71.9% | remaining activity at 1 µM (80 mV): 70.2% | remaining activity at 1 µM (100 mV): 70.4% | remaining activity at 1 µM (120 mV): 72.2% | remaining activity at 1 µM (140 mV): 76.4% | remaining activity at 1 µM (-20 mV): 86.3% | remaining activity at 1 µM (-40 mV): 90% | remaining activity at 1 µM (-60 mV): 91.9% | remaining activity at 1 µM (-80 mV): 93.5% | remaining activity at 1 µM (-100 mV): 95.1% | remaining activity at 1 µM (-120 mV): 96.6% | remaining activity at 1 µM (-140 mV): 98% | remaining activity at 3 µM (0 mV): 65.6% | remaining activity at 3 µM (20 mV): 60.1% | remaining activity at 3 µM (40 mV): 54.5% | remaining activity at 3 µM (60 mV): 51% | remaining activity at 3 µM (80 mV): 47.8% | remaining activity at 3 µM (100 mV): 46.3% | remaining activity at 3 µM (120 mV): 47.6% | remaining activity at 3 µM (140 mV): 50.5% | remaining activity at 3 µM (-20 mV): 71.2% | remaining activity at 3 µM (-40 mV): 76.7% | remaining activity at 3 µM (-60 mV): 81.4% | remaining activity at 3 µM (-80 mV): 84.1% | remaining activity at 3 µM (-100 mV): 87.3% | remaining activity at 3 µM (-120 mV): 90.5% | remaining activity at 3 µM (-140 mV): 92.2% | remaining activity at 10 µM (0 mV): 36.7% | remaining activity at 10 µM (20 mV): 31% | remaining activity at 10 µM (40 mV): 26.8% | remaining activity at 10 µM (60 mV): 24% | remaining activity at 10 µM (80 mV): 22.2% | remaining activity at 10 µM (100 mV): 21.1% | remaining activity at 10 µM (120 mV): 21.2% | remaining activity at 10 µM (140 mV): 22.5% | remaining activity at 10 µM (-20 mV): 42.4% | remaining activity at 10 µM (-40 mV): 48.9% | remaining activity at 10 µM (-60 mV): 54.9% | remaining activity at 10 µM (-80 mV): 59.5% | remaining activity at 10 µM (-100 mV): 64.7% | remaining activity at 10 µM (-120 mV): 68.5% | remaining activity at 10 µM (-140 mV): 71.3% | remaining activity at 30 µM (0 mV): 16.5% | remaining activity at 30 µM (20 mV): 13.3% | remaining activity at 30 µM (40 mV): 11.5% | remaining activity at 30 µM (60 mV): 10.1% | remaining activity at 30 µM (80 mV): 9.34% | remaining activity at 30 µM (100 mV): 8.78% | remaining activity at 30 µM (120 mV): 9.07% | remaining activity at 30 µM (140 mV): 9.98% | remaining activity at 30 µM (-20 mV): 19.7% | remaining activity at 30 µM (-40 mV): 23% | remaining activity at 30 µM (-60 mV): 27.8% | remaining activity at 30 µM (-80 mV): 31.9% | remaining activity at 30 µM (-100 mV): 35.9% | remaining activity at 30 µM (-120 mV): 39.5% | remaining activity at 30 µM (-140 mV): 43.5% | remaining activity at 100 µM (0 mV): 6.52% | remaining activity at 100 µM (20 mV): 4.86% | remaining activity at 100 µM (40 mV): 3.97% | remaining activity at 100 µM (60 mV): 3.5% | remaining activity at 100 µM (80 mV): 3.13% | remaining activity at 100 µM (100 mV): 2.74% | remaining activity at 100 µM (120 mV): 2.48% | remaining activity at 100 µM (140 mV): 2.4% | remaining activity at 100 µM (-20 mV): 8.19% | remaining activity at 100 µM (-40 mV): 9.29% | remaining activity at 100 µM (-60 mV): 11.5% | remaining activity at 100 µM (-80 mV): 13.7% | remaining activity at 100 µM (-100 mV): 16.6% | remaining activity at 100 µM (-120 mV): 18.8% | remaining activity at 100 µM (-140 mV): 21.5% | IC50 (20 mV, 2 µM Ca2+): 4.37 µM | IC50 (40 mV, 2 µM Ca2+): 3.5 µM | IC50 (60 mV, 2 µM Ca2+): 2.99 µM | log-fold IC50 (change of mutant vs WT) (80 mV): 0.1093 | IC50 (80 mV, 2 µM Ca2+): 2.66 µM | IC50 (100 mV, 2 µM Ca2+): 2.55 µM | IC50 (120 mV, 2 µM Ca2+): 2.69 µM | IC50 (140 mV, 2 µM Ca2+): 3.08 µM | IC50 (-20 mV, 2 µM Ca2+): 7.32 µM | IC50 (-40 mV, 2 µM Ca2+): 9.5 µM | IC50 (-60 mV, 2 µM Ca2+): 12.2 µM | IC50 (-80 mV, 2 µM Ca2+): 14.7 µM | IC50 (-100 mV, 2 µM Ca2+): 18.1 µM | IC50 (-120 mV, 2 µM Ca2+): 21.5 µM | IC50 (-140 mV, 2 µM Ca2+): 25.1 µM | IC50 (T518A, V 0 mV): 5.67 µM | IC50 (T518A, V 20 mV): 4.37 µM | IC50 (T518A, V 40 mV): 3.5 µM | IC50 (T518A, V 60 mV): 2.99 µM | IC50 (T518A, V 80 mV): 2.66 µM | IC50 (T518A, V 100 mV): 2.55 µM | IC50 (T518A, V 120 mV): 2.69 µM | IC50 (T518A, V 140 mV): 3.08 µM | IC50 (T518A, V -20 mV): 7.32 µM | IC50 (T518A, V -40 mV): 9.5 µM | IC50 (T518A, V -60 mV): 12.2 µM | IC50 (T518A, V -80 mV): 14.7 µM | IC50 (T518A, V -100 mV): 18.1 µM | IC50 (T518A, V -120 mV): 21.5 µM | IC50 (T518A, V -140 mV): 25.1 µM
SMILES: N#Cc1c(C(F)(F)F)cc(O)n2c1nc1ccccc12 [1PBC]
